From patent US7214682B2, “Substituted 2-pyridinyl-6,7,8,9-tetrahydropyrimido{1,2-a}pyrimidin-4-one and 7-pyridinyl-2,3-dihydroimidazo{1,2-a}pyrimidin-5(1h)one derivatives” (Sanofi-aventis, priority 2001, dated 2007)
pIC50: −log10 of the molar value.

Legend:
cdk5/p25 = cdk5/p25 (Homo sapiens, UniProt Q00535); assay: Inhibitory activity against cdk5/p25 (TPK2), 33P-ATP phosphorylation of Histone H1; type: biochemical; details: TPK2 = cdk5/p25 (b7); table 4
Description: The following protocol may be used: 0.4 mg/ml Histone H1 and 10 μM ATP (containing 300,000 cpm of ^33P-ATP) were incubated in 50 mM Hepes, pH 7.2, 1 mM DTT, 1 mM MgCl2, 1 mM EGTA, 0.02% Tween 20 buffer for 1 hour at room temperature in the presence of cdk5/p25 (total reaction volume: 100 microliters). Inhibitors were solubilized in DMSO (final solvent concentration in the reaction medium, 1%). The reaction was stopped with 100 microliters of a solution of 25 g polyphosphoric acid (85% P2O5), 126 ml 85% H3PO4, H2O to 500 ml (diluted to 1:100 before use). An aliquot of the reaction mixture was then transferred to Whatman P81 cation exchange filters and rinsed with the solution described above. Incorporated ^33P radioactivity was determined by liquid scintillation spectrometry. The cdk5/p25 inhibitory activity of the compounds of the present invention are expressed as IC50 values. Typically, 3-fold serial dilutions of the inhibitor over at least a 1000-fold concentration range are used.

GSK3β = GSK3β (Homo sapiens, UniProt P49841); assay: Inhibitory activity against GSK3β (TPK1), 33P-ATP phosphorylation of GS1 peptide; type: biochemical; details: TPK1 = GSK3β (b5); table 4
Description: Two different protocols can be used.
In a first protocol: 7.5 μM of prephosphorylated GS1 peptide and 10 μM ATP (containing 300,000 cpm of 33P-ATP) were incubated in 25 mM Tris-HCl, pH 7.5, 0.6 mM DTT, 6 mM MgCl2, 0.6 mM EGTA, 0.05 mg/ml BSA buffer for 1 hour at room temperature in the presence of GSK3β (total reaction volume: 100 microliters).
In a second protocol: 4.1 μM of prephosphorylated GS1 peptide and 42 μM ATP (containing 260,000 cpm 33P-ATP) were incubated in 80 mM Mes-NaOH, pH 6.5, 1 mM Mg acetate, 0.5 mM EGTA, 5 mM 2-mercaptoethanol, 0.02% Tween 20, 10% glycerol buffer for 2 hours at room temperature in the presence of GSK3β.
Inhibitors were solubilized in DMSO (final solvent concentration in the reaction medium, 1%).
The reaction was stopped with 100 microliters of a solution made of 25 g polyphosphoric acid (85% P2O5), 126 ml 85% H3PO4, H2O to 500 ml and then diluted to 1:100 before use. An aliquot of the reaction mixture was then transferred to Whatman P81 cation exchange filters and rinsed with the solution described above. Incorporated 33P radioactivity was determined by liquid scintillation spectrometry.
The phosphorylated GS-1 peptide had the following sequence: NH2-[…](P)EDEE-COOH.
The GSK3β inhibitory activity of the compounds of the present invention are expressed in IC50, and as an illustration the range of IC50's of the compounds in table 1 is between 4 nanomolar to 2 micromolar concentrations, of the compounds in table 2 is between 30 nanomolar to 2 micromolar concentrations and of the compounds in table three is between 1 nanomolar to 2 micromolar.

Chain of cdk5/p25 (Q00535 whole entry, species assumed): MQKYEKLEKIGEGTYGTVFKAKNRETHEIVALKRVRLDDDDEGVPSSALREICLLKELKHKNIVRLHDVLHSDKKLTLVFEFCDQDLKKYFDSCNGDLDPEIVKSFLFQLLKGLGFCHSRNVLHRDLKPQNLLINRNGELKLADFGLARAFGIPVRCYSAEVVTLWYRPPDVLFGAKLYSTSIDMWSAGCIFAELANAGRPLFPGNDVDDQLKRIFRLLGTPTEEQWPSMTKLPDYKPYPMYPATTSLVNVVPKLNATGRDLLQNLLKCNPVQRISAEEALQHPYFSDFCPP
Chain of cdk5/p25 (Q15078 99-307 partner limits assumed, species assumed): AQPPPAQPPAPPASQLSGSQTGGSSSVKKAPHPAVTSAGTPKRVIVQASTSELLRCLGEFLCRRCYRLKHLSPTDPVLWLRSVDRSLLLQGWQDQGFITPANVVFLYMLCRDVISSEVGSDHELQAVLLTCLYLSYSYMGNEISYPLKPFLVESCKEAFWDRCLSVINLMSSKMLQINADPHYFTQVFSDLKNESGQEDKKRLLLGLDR
Chain of GSK3β (P49841 whole entry, species assumed): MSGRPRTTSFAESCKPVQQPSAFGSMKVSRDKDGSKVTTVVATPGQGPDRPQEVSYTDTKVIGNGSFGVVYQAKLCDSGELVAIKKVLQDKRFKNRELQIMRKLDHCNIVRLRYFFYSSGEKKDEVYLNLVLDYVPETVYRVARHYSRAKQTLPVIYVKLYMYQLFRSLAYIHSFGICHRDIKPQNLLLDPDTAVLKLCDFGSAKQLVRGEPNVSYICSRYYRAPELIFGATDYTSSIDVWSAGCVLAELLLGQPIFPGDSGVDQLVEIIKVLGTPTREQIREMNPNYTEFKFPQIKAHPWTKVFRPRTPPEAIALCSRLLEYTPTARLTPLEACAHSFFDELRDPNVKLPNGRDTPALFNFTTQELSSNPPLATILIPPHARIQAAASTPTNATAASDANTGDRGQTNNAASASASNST

Row | SMILES | pIC50 (cdk5/p25) | pIC50 (GSK3β) | melting point [°C]
1 | O=C(CN1CCCn2c1nc(-c1ccncc1)c(F)c2=O)c1cccc(F)c1 [Table 1 Compound 37, 9-[2-Oxo-2-(3-fluorophenyl)-ethyl]-3-fluoro-2-(pyridin-4-yl)-6,7,8,9-tetrahydro-4H-pyrimido[1,2-a]pyrimidin-4-one] | 5.34 | 8.40 | –
2 | CC1(C)CN(C[C@@H](O)c2ccccc2)c2nc(-c3ccncc3)c(F)c(=O)n2C1 [Table 1 Compound 12, 9-(2(S)-Hydroxy-2-phenyl-ethyl)-3-fluoro-7,7-dimethyl-2-(pyridin-4-yl)-6,7,8,9-tetrahydro-4H-pyrimido[1,2-a]pyrimidin-4-one] | 6.48 | 7.96 | –
3 | O=c1cc(-c2ccncc2)nc2n1CC(F)(F)CN2C[C@@H](O)c1ccccc1 [Table 1 Compound 5, 9-(2(S)-Hydroxy-2-phenyl-ethyl)-7,7-difluoro-2-(pyridin4-yl)-6,7,8,9-tetrahydro-4H-pyrimido[1,2-a]pyrimidin-4-one] | 7.17 | 7.22 | –
4 | O=C(CN1CCCn2c1nc(-c1ccncc1)c(Br)c2=O)c1ccccc1 [Table 1 Compound 40, 9-(2-Oxo-2-phenyl-ethyl)-3-bromo-2-(pyridin-4-yl)-6,7,8,9-tetrahydro-4H-pyrimido[1,2-a]pyrimidin-4-one] | 7.11 | 8.30 | –
5 | O=c1c(Cl)c(-c2ccncc2)nc2n1CCCN2C[C@@H](O)c1ccccc1 [Table 1 Compound 42, 9-(2(S)-Hydroxy-2-phenyl-ethyl)-3-chloro-2-(pyridin-4-yl)-6,7,8,9-tetrahydro-4H-pyrimido[1,2-a]pyrimidin-4-one] | 6.81 | 7.55 | –
6 | CC1CCn2c(nc(-c3ccncc3)cc2=O)N1C[C@@H](O)c1ccccc1 (mixture of isomers) [Table 3 Compound 7, 9-[2(S)-Hydroxy-2-phenyl-ethyl]-8-methyl-2-(pyridin-4-yl)-6,7,8,9-tetrahydro-pyrimido[1,2-a]pyrimidin-4-one] | 6.46 | 8.40 | –
7 | O=c1c(F)c(-c2ccncc2)nc2n1CCCN2C[C@@H](O)c1ccccc1 [Table 1 Compound 44, 9-(2(S)-Hydroxy-2-phenyl-ethyl)-3-fluoro-2-(pyridin-4-yl)-6,7,8,9-tetrahydro-4H-pyrimido[1,2-a]pyrimidin-4-one] | < 6.00 | 8.22 | –
8 | CC1CCn2c(nc(-c3ccncc3)c(F)c2=O)N1CC(=O)c1ccccc1 (racemic) [Table 3 Compound 18, 3-Fluoro-8-methyl-9-(2-oxo-2-phenyl-ethyl)-2-(pyridin-4-yl)-6,7,8,9-tetrahydro-pyrimido[1,2-a]pyrimidin-4-one] | – | – | 201 to 202
9 | O=C(CN1CCCn2c1nc(-c1ccncc1)c(Cl)c2=O)c1ccccc1 [Table 1 Compound 39, 9-(2-Oxo-2-phenyl-ethyl)-3-chloro-2-(pyridin-4-yl)-6,7,8,9-tetrahydro-4H-pyrimido[1,2-a]pyrimidin-4-one] | 7.21 | 8.40 | –
10 | CO[C@H](CN1CCCn2c1nc(-c1ccncc1)c(F)c2=O)c1ccccc1 [Table 1 Compound 45, 9-(2(S)-Methoxy-2-phenyl-ethyl)-3-fluoro-2-(pyridin-4-yl)-6,7,8,9-tetrahydro-4H-pyrimido[1,2-a]pyrimidin-4-one] | < 6.00 | 8.22 | –
11 | Cc1ccc([C@H](O)CN2c3nc(-c4ccncc4)cc(=O)n3CCC2(C)C)cc1 [Table 3 Compound 32, 9-(2(S)-Hydroxy-2-p-tolyl-ethyl)-8,8-dimethyl-2-(pyridin-4-yl)-6,7,8,9-tetrahydro-pyrimido[1,2-a]pyrimidin-4-one] | < 6.00 | 9.00 | –
